According to US20210379063A1, “ORAL AMINODIHYDROPHTHALAZINEDIONE COMPOSITIONS AND THEIR USE IN THE TREATMENT OF NON-VIRAL HEPATITIS” (Immunopharma Plus D.O.O., priority 2018, published 2021):
“And” between values parts separate entries of the source, which are not always exact repeats. Identical values can stand only once. Like-named read-outs stand apart in the source and are kept apart here. Marks after values point to notes of the source that are not given here.

Legend:
[1] = tested on: liver after introduction of carrageenan; settings: for ALT, units/l / AST, units/l: carrageenan + Tamerit
Procedure: The experiments were carried out on 25 male Wistar rats weighing 200-220 g, in accordance with the recommendations of the international ethics committees on the humane treatment of laboratory animals (EU Council Directive 86/609 EEC dated Nov. 24, 1986). […] Its mechanism of action is based on the inhibition of the process of phagocytosis and the activity of lysosomal hydrolases of mononuclear phagocytes. The drug was administered intragastrically through a probe in an aqueous solution at a dose of 10 mg/kg. The choice of time frame (4, 17 hours after surgery) corresponds to the phases of liver regeneration.

porcine small intestine = settings: for concentration in receptor compartment, small intestine, AVG / concentration in receptor compartment, small intestine: 10 mM donor solution; for concentration in receptor compartment, small intestine: single chambers
Procedure: Porcine Small Intestinal (SI) Permeability Procedure • Full thickness pig small intestinal delivered to Solubest on the day of the experiment. • Experiments were carried out on 6 slices 2 cm*2 cm with full thickness pig small intestinal sample • The intestinal was prepared so brush border side is facing the donor compartment. • According to Solubest protocol the excess mucus and connective tissue were removed • The receiver compartment contains 0.01M Phosphate Buffer pH 7.4 (PBS). • Receiver's samples were withdrawn at 5 time points (30 min, 60 min, 120 min, 4 hours and 6 hours). • Water pump was set to temp 38±1° C. in order to keep fixed temp in receptor department at 37±1° C.

[2] = tested on: reparative liver regeneration after partial hepatectomy
Description: Reparative liver regeneration was caused by the removal of ⅔ mass of the organ—partial hepatectomy by G. M. Higgis, R. M. Anderson.

PHMG poisoning = assay: Acute hepatitis caused by alcohol substitute PHMG in rats
Procedure: The experiment was carried out on 25 male white outbred rats weighing 200-300 g, in accordance with the recommendations of the international ethics committees on the humane treatment of laboratory animals (EU Council Directive 86/609 EEC dated Nov. 24, 1986). To create an experimental model, an aqueous solution of PHMG was used, which was administered intraperitoneally at a dose of 50 mg/100 g.

[3] = tested on: porcine large intestine (colon); assay: Porcine large intestine permeability, Franz cell; settings: for concentration in receptor comp, large intestine, AVG / concentration in receptor compartment, large intestine: 10 mM donor solution; for concentration in receptor compartment, large intestine: single chambers
Procedure: The intestine was prepared so the mucous side will be facing the donor compartment.

[4] = tested on: hepatitis caused by pesticides
Description: Clinically, this is manifested by pallor, fatigue, shortness of breath on exertion, hypoxia of the organs, respectively, and of the organism as a whole. The lipid peroxidation that develops at the same time causes tissue damage, and in response, macrophages infiltrate and generate oxygen radicals and pro-inflammatory cytokines (TNF, IL, etc.), thereby contributing their destructive potential to the development of the pathological process.

[5] = tested on: acute experimental hepatitis, tetrachloromethane (CCL4)
Procedure: Acute experimental hepatitis that develops with the introduction of tetrachloromethane (CCL4) is a classic model for studying the mechanisms of reparative regeneration of the liver after exposure to various chemical toxicants.
The experiments were carried out on male Wistar rats weighing 200-220 g, in accordance with the recommendations of the international ethics committees on the humane treatment of laboratory animals (EU Council Directive 86/609 EEC dated Nov. 24, 1986). Carbon tetrachloride (CCL4), was administered to the animals intraperitoneally once at a dose of 50 mg/kg of body weight. […] The animals were sacrificed on the 3rd, 7th day after the simulation of toxic hepatitis.

macrophages = settings: cited from earlier work
[6] = tested on: Toxic hepatopathy degree II
Procedure: The patient received standard hepatic therapy: Duphalac 50 ml 3 times a day, Hepasol A 1000 ml, Heptral 800 mg. Detoxification therapy was carried out. […] The patient was monitored for another 1 month in a poison center.

porcine stomach (cardia) = settings: 10 mM donor solution
[7] = PHMG 3 days + Tamerit intraperitoneally
[8] = PHMG 7 days + Tamerit intraperitoneally
[9] = CCl4 3rd day + Tamerit 2 mg/kg intramuscularly
[10] = CCl4 7th day + Tamerit 2 mg/kg intramuscularly
[11] = per os, enteric coated tablets, with standard hepatic therapy

Nc1cccc2c(=O)[n-][nH]c(=O)c12.[Na+] [Tamerit, aminodihydrophthalazinedione sodium]
Mitotic index, % ([1]; Carrageenan 4 hours + Tamerit): 0.65 ± 0.25 %
Nuclear cytoplasmic index ([1]; Carrageenan 4 hours + Tamerit): 0.36 ± 0.01
Number of binuclear cells, % ([1]; Carrageenan 4 hours + Tamerit): 25.0 ± 3.58 %
Mitotic index, % ([1]; Carrageenan 17 hours + Tamerit): 0.48 ± 0.12 %
Nuclear cytoplasmic index ([1]; Carrageenan 17 hours + Tamerit): 0.35 ± 0.02
Number of binuclear cells, % ([1]; Carrageenan 17 hours + Tamerit): 29.2 ± 4.18 %
activity of aminotransferases ([1]; after carrageenan): completely restores the activity of aminotransferases to the parameters of healthy animals
ALT, units/l ([1]; 4 hours): 40.2 ± 4.0 units/l
AST, units/l ([1]; 4 hours): 85.4 ± 8.0 units/l
ALT, units/l ([1]; 17 hours): 42.2 ± 3.5 units/l
AST, units/l ([1]; 17 hours): 83.5 ± 4.5 units/l
concentration in receptor compartment, small intestine, AVG (porcine small intestine; 0 min): 0 ng/mL
concentration in receptor compartment, small intestine (porcine small intestine; 0 min): 0 ng/mL
concentration in receptor compartment, small intestine, AVG (porcine small intestine; 30 min): 1000 ng/mL
concentration in receptor compartment, small intestine, AVG (porcine small intestine; 60 min): 3000 ng/mL
concentration in receptor compartment, small intestine (porcine small intestine; 60 min, sodium): 3500 ng/mL and 2400 ng/mL
concentration in receptor compartment, small intestine, AVG (porcine small intestine; 120 min): 6000 ng/mL
concentration in receptor compartment, small intestine (porcine small intestine; 120 min, sodium): 5400 ng/mL and 5600 ng/mL and 9100 ng/mL and 5100 ng/mL
concentration in receptor compartment, small intestine, AVG (porcine small intestine; 240 min): 12000 ng/mL
concentration in receptor compartment, small intestine, AVG (porcine small intestine; 360 min): 23000 ng/mL
concentration in receptor compartment, small intestine (porcine small intestine; 360 min, sodium): 26400 ng/mL and 19500 ng/mL and 28700 ng/mL and 19000 ng/mL
Tamerit Permeability vs Propranolol Permeability (porcine small intestine; small intestine, FIG. 11): permeates better than propranolol
permeation compared with Propranolol (porcine small intestine; small intestine, after 4 hours): three time better than Propranolol
Mitotic index, % ([2]; hepatectomy 4 hours + Tamerit): 2 ± 0.8 %
Nuclear cytoplasmic index ([2]; hepatectomy 4 hours + Tamerit): 0.40 ± 0.005
Number of binuclear cells, % ([2]; hepatectomy 4 hours + Tamerit): 16.6 ± 1.69%
The size of the nucleus of hepatocytes, μm ([2]; hepatectomy 4 hours + Tamerit): 8.0 ± 0.26 μm
Mitotic index, % ([2]; hepatectomy 17 hours + Tamerit): 5.5 ± 1.3 %
Nuclear cytoplasmic index ([2]; hepatectomy 17 hours + Tamerit): 0.319 ± 0.01
Number of binuclear cells, % ([2]; hepatectomy 17 hours + Tamerit): 29.83 ± 2.5 %
The size of the nucleus of hepatocytes, μm ([2]; hepatectomy 17 hours + Tamerit): 7.67 ± 0.28 μm
increase of the number of hepatocytes that divide by mitosis ([2]; regenerating liver): by an order of magnitude
degree of hepatocyte destruction (PHMG poisoning; 7th day after PHMG): minimal
ALT, U/L (PHMG poisoning; PHMG 3rd day + Tamerit): 5.7 ± 1.9 U/L
AST, U/L (PHMG poisoning; PHMG 3rd day + Tamerit): 11.3 ± 0.6 U/L
GTP, U/L (PHMG poisoning; PHMG 3rd day + Tamerit): 17.5 ± 2.0 U/L
ALT, U/L (PHMG poisoning; PHMG 7th day + Tamerit): 8.1 ± 0.2 U/L
AST, U/L (PHMG poisoning; PHMG 7th day + Tamerit): 12.1 ± 0.3 U/L
GTP, U/L (PHMG poisoning; PHMG 7th day + Tamerit): 26.0 ± 3.4 U/L
Binuclear cells, % (PHMG poisoning; [7]): 65.12 ± 0.14 %
Mitotic index, % (PHMG poisoning; [7]): 38.26 ± 0.18 %
Binuclear cells, % (PHMG poisoning; [8]): 61.18 ± 0.24 %
Mitotic index, % (PHMG poisoning; [8]): 45.6 ± 0.14* ** %
permeability through large intestine tissue, in words [3]: good permeability
concentration in receptor comp, large intestine, AVG ([3]; 0 min): 0 ng/mL
concentration in receptor compartment, large intestine ([3]; 0 min): 0 ng/mL
concentration in receptor comp, large intestine, AVG ([3]; 30 min): 5000 ng/mL
concentration in receptor comp, large intestine, AVG ([3]; 60 min): 7000 ng/mL
concentration in receptor comp, large intestine, AVG ([3]; 120 min): 17000 ng/mL
concentration in receptor comp, large intestine, AVG ([3]; 240 min): 35000 ng/mL
concentration in receptor compartment, large intestine ([3]; 240 min, sodium): 30600 ng/mL and 25000 ng/mL and 36400 ng/mL and 49000 ng/mL
concentration in receptor comp, large intestine, AVG ([3]; 360 min): 48000 ng/mL
concentration in receptor comp, large intestine, AVG ([3]; 720 min): 90000 ng/mL
time to reach steady state of permeation ([3]; large intestinal tissue): four
Recovery from donor comp, % ([3]; large intestine, 0 min): 0.00%
mg in receptor comp ([3]; large intestine, 0 min): 0.000 mg
Recovery from donor comp, % ([3]; large intestine, 30 min): 0.45%
mg in receptor comp ([3]; large intestine, 30 min): 0.026 mg
Recovery from donor comp, % ([3]; large intestine, 60 min): 0.63%
mg in receptor comp ([3]; large intestine, 60 min): 0.036 mg
Recovery from donor comp, % ([3]; large intestine, 120 min): 1.46%
mg in receptor comp ([3]; large intestine, 120 min): 0.084 mg
Recovery from donor comp, % ([3]; large intestine, 240 min): 3.07%
mg in receptor comp ([3]; large intestine, 240 min): 0.176 mg
Recovery from donor comp, % ([3]; large intestine, 360 min): 4.20%
mg in receptor comp ([3]; large intestine, 360 min): 0.242 mg
Tamerit Permeability vs Propranolol Permeability ([3]; large intestine, FIG. 11): permeates better than propranolol
permeation compared with Propranolol ([3]; large intestine, after 4 hours): as good as Propranolol
AST and ALT ([4]; after the end of treatment, AST-80, ALT-98 before): within normal limits
Hemoglobin ([4]; at discharge after enteric-coated 100 mg tablets, 89 before): 120
patient's condition ([4]; third day from the start of treatment): improved
ALT, U/L [5, 9]: 9.1 ± 1.6 U/L
AST, U/L [5, 9]: 10.0 ± 2.0 U/L
BCL, quant [5, 9]: 186.0 ± 7.0 quant
ALT, U/L [5, 10]: 7.12 ± 0.20 U/L
AST, U/L [5, 10]: 8.53 ± 0.13 U/L
BCL, quant [5, 10]: 171 ± 18 quant
effect on inflammatory reaction in toxic hepatitis ([5]; early stages of toxic hepatitis by tetrachloromethane): reduces the severity of the inflammatory reaction
duration of reversible suppression of macrophage hyperactivity (macrophages; acute inflammatory diseases): 10 to 12 h
excretion (macrophages): rapidly excreted
toxicity (macrophages): extremely low toxicity
adverse effects ([6]; during the use of Tamerit): no adverse effects were noted
blood biochemical parameters [6, 11]: fully normalized
relief of symptoms of intoxication [6, 11]: highly effective
concentration in receptor compartment, Tamerit stomach, AVG (porcine stomach (cardia); 0 min): 0 ng/mL
concentration in receptor compartment, Tamerit stomach (porcine stomach (cardia); 0 min, single chambers): 0 ng/mL
concentration in receptor compartment, Tamerit stomach, AVG (porcine stomach (cardia); 15 min): 50 ng/mL
concentration in receptor compartment, Tamerit stomach, AVG (porcine stomach (cardia); 30 min): 41 ng/mL
concentration in receptor compartment, Tamerit stomach, AVG (porcine stomach (cardia); 45 min): 69 ng/mL
concentration in receptor compartment, Tamerit stomach, AVG (porcine stomach (cardia); 90 min): 85 ng/mL
concentration in receptor compartment, Tamerit stomach, AVG (porcine stomach (cardia); 120 min): 104 ng/mL
state of a solution containing 10 mM: supersaturated solution
